For data set [1], the system named is thyro-parathyroidectomized (TPTX) rats. The experiment in a line: PTH-induced Hypercalcemia of Thyro-parathyroidectomized Male Rats. The class given is in vivo, rat. The following applies: for Change in Serum Calcium after 3 hours / Change in Serum Calcium after 6 hours: Table V, TPTX male rats, rPTH(1-34) 0.45 μg/kg/hr, Example 37 100 mg/kg, s.c. From the text:
Effects of Test Compounds on PTH-induced Hypercalcemia of Thyro-parathyroidectomized Male Rats. Male thyro-parathyroidectomized (TPTX) rats (Charles River) were randomly assigned to groups of 7 rats/group. […] For evaluation of prophylactic effects of a test drug, another minipump with appropriate concentration of the test drug solution was implanted subcutaneously at a site away from PTH minipump or implanted as a pellet of the test compound away from the PTH minipump. Alternatively, test drugs were administered by oral gavage as a solution or uniform suspension in an appropriate medium depending on the physical properties of the test compound. A group of 7 unimplanted TPTX rats was set aside as a normal control group.

For data set [2], the target named is T1, αIIbβ3 integrin (Homo sapiens, UniProt P05106+P08514).
T1 construct: Human Platelets: Platelet-enriched plasma was obtained commercially from a donor pool; from tissue; host or cells: human platelet-rich plasma from a commercial donor pool
The experiment in a line: ADP-Induced Platelet Aggregation. The class given is cell-based. The conditions noted are these: Table VII; for IC50: ADP 20 uM, human platelets, read-out: Platelet Aggregation αIIbβ3 IC50. In outline:
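Pooled human PRP ([…]) preincubated with compound (1% vehicle) 5 min at 37° C with stirring, then stimulated with 20 uM ADP. Light transmittance followed 5 min against PPP reference; maximal aggregation expressed as % of vehicle control, mean ± SD.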

The test system of data set [3] is osteoclasts. The experiment in a line: Osteoclast Bone Pitting. The class given is cell-based, rat. In outline: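 Osteoclasts on bone slices at an acidic pH promoting resorption; slices fixed, osteoclasts counted after TRAP staining, cells stripped by sonication in 0.25M NH4OH and toluidine blue-stained pits counted manually. Block design, three replicate slices per treatment per animal; IC50 from dose-response curves.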

For data set [4], the target named is T2, αVβ3 integrin (Homo sapiens, UniProt P05106+P06756).
T2 construct: αVβ3-expressing cell lines are maintained by standard tissue culture techniques; endogenous in cells; host or cells: αVβ3-expressing cell lines
The experiment in a line: Osteopontin-αVβ3 Cell Attachment Test Procedure. The class given is cell-based. The conditions noted are these: for IC50: attachment of cells to osteopontin, read-out: (αVβ3) IC50 CELL ATTACHMENT; for remaining activity at 20 µM / remaining activity at 100 µM: % of maximal attachment, read-out: (αVβ3) CELL ATTACHMENT, % @ concentration. In outline:
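Cells expressing αVβ3 (10^6 cells/mL) added with test compound to osteopontin-coated, 1% BSA-blocked wells in triplicate; 1.5 h at 25° C. Attached cells quantified by MTT dye conversion (overnight, 37° C.); optical density expressed as % of maximal attachment minus uncoated-well background, mean ±SD.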

The target of data set [5] is T3, Vitronectin Receptor (αVβ3) (Homo sapiens, UniProt P05106+P06756).
T3 construct: expressed in transfected cells; host or cells: 512P5 cells (plasma membrane preparation)
The experiment in a line: Vitronectin Receptor (αVβ3) Binding Test Procedure. The following applies: for IC50: read-out: (αVβ3) IC50 RECEPTOR BINDING; for remaining activity at 30 µM: % Max = percentage of the specific binding, read-out: (αVβ3) RECEPTOR BINDING, % @ concentration.

Setting [6] is: @200 μM, percent of maximal aggregation.

Usually IC50 stands for the concentration that inhibits the measured activity by half. What is called melting point is the temperature of the solid-liquid transition. The term inhibition denotes the change of the read-out against control, counted positive when it falls.

Marks after values point to notes of the source that are not given here.

T1 sequence (P08514 32-887 limits assumed): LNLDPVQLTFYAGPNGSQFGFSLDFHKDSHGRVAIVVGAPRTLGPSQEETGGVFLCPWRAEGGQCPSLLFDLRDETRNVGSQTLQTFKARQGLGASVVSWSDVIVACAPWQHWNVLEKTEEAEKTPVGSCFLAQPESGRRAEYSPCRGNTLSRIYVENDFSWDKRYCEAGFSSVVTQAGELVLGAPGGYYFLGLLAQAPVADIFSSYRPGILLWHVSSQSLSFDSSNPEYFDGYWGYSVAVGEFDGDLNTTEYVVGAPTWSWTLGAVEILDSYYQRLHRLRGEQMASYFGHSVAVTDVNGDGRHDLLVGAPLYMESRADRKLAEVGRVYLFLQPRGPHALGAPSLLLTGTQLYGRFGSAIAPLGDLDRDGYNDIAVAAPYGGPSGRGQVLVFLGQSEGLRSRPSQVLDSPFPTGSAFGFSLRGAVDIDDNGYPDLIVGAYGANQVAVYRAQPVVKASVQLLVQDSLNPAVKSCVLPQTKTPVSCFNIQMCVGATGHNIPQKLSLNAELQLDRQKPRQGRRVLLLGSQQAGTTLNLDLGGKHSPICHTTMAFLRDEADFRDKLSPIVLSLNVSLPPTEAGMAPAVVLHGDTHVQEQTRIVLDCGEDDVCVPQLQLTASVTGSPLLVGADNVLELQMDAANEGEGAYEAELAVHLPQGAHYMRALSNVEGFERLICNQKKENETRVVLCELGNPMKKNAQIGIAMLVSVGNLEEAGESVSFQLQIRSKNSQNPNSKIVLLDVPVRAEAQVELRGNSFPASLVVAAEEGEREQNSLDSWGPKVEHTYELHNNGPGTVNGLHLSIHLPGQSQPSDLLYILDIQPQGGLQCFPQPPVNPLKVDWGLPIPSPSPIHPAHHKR
T1 sequence (P08514 891-1039 partner limits assumed): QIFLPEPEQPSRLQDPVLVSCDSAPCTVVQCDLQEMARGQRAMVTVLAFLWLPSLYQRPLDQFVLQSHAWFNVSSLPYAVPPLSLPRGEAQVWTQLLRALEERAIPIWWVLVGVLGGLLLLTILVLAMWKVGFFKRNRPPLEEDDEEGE
T1 sequence (P05106 27-788): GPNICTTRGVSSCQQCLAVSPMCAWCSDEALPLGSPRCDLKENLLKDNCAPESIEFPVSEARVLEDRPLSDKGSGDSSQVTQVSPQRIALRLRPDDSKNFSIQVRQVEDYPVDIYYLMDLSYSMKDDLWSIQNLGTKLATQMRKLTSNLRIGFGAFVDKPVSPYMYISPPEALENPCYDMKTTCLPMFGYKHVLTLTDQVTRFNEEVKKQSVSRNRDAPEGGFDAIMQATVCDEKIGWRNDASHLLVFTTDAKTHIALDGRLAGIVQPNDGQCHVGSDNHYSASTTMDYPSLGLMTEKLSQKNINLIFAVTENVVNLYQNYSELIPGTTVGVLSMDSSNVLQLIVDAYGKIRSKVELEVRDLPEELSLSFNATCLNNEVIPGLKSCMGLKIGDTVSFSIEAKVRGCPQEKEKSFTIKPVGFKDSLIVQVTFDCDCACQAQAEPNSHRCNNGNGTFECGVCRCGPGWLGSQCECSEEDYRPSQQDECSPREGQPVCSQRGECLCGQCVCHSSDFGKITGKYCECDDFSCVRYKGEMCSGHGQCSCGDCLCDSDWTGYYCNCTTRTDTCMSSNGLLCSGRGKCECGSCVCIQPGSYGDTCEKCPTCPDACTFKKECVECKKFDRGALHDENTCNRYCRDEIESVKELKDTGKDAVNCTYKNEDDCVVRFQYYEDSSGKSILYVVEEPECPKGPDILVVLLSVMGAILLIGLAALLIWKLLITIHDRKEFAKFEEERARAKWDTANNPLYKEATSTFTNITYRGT
T2 sequence (P06756 31-889 limits assumed): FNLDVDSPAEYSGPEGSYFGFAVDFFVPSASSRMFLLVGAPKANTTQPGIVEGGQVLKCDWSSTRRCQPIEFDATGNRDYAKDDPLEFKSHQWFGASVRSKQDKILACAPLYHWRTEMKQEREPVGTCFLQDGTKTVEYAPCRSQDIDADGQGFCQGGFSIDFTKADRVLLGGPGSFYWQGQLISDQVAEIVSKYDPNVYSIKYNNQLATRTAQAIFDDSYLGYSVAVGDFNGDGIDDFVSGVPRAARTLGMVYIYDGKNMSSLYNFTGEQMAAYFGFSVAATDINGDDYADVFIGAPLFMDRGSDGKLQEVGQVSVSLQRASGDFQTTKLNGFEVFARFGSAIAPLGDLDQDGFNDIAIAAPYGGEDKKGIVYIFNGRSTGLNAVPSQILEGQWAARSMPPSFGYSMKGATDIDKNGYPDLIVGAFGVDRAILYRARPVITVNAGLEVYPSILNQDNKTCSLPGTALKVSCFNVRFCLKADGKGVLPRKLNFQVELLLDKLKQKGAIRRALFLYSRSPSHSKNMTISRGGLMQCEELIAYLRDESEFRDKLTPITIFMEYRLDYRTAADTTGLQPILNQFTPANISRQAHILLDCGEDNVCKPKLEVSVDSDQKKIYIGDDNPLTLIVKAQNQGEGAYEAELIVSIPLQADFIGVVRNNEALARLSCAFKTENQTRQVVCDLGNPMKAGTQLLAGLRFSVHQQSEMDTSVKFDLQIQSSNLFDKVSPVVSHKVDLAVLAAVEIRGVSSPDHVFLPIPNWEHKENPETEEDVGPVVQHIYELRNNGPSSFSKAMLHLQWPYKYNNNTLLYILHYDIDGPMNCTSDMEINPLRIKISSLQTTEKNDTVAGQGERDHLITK
T2 sequence (P06756 891-1048 partner limits assumed): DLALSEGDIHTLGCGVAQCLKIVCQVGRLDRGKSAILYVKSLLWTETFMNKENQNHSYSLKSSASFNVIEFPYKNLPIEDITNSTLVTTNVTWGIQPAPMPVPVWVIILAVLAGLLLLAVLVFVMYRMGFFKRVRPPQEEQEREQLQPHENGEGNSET
T2 sequence (P05106 27-788): as the sequence (P05106 27-788) above
T3 sequence (P06756 31-889 limits assumed): as the sequence (P06756 31-889 limits assumed) above
T3 sequence (P06756 891-1048 partner limits assumed): as the sequence (P06756 891-1048 partner limits assumed) above
T3 sequence (P05106 27-788): as the sequence (P05106 27-788) above

With `N=C(N)NCCCOc1ccc2c(c1)CCC(CC(=O)O)C2.O=C(O)C(F)(F)F` (centres unmarked) [Example 37, [6-(3-Guanidino-propoxy)-1,2,3,4-tetrahydro-napthalen-2-yl]-acetic Acid Trifluoroacetate], the “Change in Serum Calcium after 3 hours” value is 1.72 mg/dL in data set [1] (1st column pair), 0.97 mg/dL in data set [1] (2nd column pair), 0.95 mg/dL in data set [1] (3rd column pair) and 1.31 mg/dL in data set [1] (4th column pair). In addition, the “Change in Serum Calcium after 6 hours” value in data set [1] (1st column pair) is 2.22 mg/dL; in data set [1] (2nd column pair), 2.21 mg/dL; in data set [1] (3rd column pair), 1.80 mg/dL; in data set [1] (4th column pair), 1.63 mg/dL. For the same compound, the IC50 was 82.4 µM in data set [2], 8.9 µM in data set [4] and 2.9 µM in data set [5]. In addition, in data set [3] (@ 238 μM), the “BONE PITTING INHIBITION” value stood at 30% @ 238.

As to `N=C(N)NCCCCc1ccc2c(c1)NC(=O)C(CC(=O)O)C2.O=C(O)C(F)(F)F` (centres unmarked) [Example 121, [7-(4-Guanidino-butyl)-2-oxo-1,2,3,4-tetrahydro-quinolin-3-yl]-acetic Acid Trifluoroacetate], the melting point is 157 to 160 °C. Besides, the remaining activity at 200 µM in data set [2] (setting [6]) worked out at 62%. Further, in data set [3] (Rattus norvegicus, Osteoclast, @ 228 μM), the inhibition at 228 µM came out at 30%. The half-maximal inhibitory concentration (IC50) in data set [4] was determined as 15.1 µM. Also, the IC50 in data set [5] was determined as 2.6 µM.

As for `N=C(N)NCCCCCc1ccc2c(c1)NC(=O)C(CC(=O)O)C2.O=C(O)C(F)(F)F` (centres unmarked) [Example 122, [7-(5-Guanidino-pentyl)-2-oxo-1,2,3,4-tetrahydro-quinolin-3-yl]-acetic Acid Trifluoroacetate], the melting point was in the range of 148 to 151 °C. The IC50 in data set [2] is 57 µM. The IC50 in data set [3] (Rattus norvegicus, Osteoclast, read-out: BONE PITTING INHIBITION IC50) turned out to be 159 µM. Besides, the IC50 in data set [4] was 8.3 µM. Moreover, the IC50 in data set [5] was determined as 3.6 µM.

`N=C(N)NCCCOc1ccc2c(c1)N(Cc1ccccc1)C(=O)C(CC(=O)O)C2` (centres unmarked) [Example 172, [1-Benzyl-7-(3-guanidino-propoxy)-2-oxo-1,2,3,4-tetrahydro-quinolin-3-yl]-acetic Acid] had a melting point of 172 to 173 °C. Besides, in data set [2] (setting [6]), the remaining activity at 200 µM stood at 71.5%. In data set [3] (Rattus norvegicus, Osteoclast, @ 190 μM), the inhibition at 190 µM turned out to be 15%. Also, the IC50 in data set [4] amounted to 27.3 µM. The IC50 in data set [5] was 2.7 µM.

As to `Cl.N=C(N)NCCCCOc1ccc2cc(CC(=O)O)c(=O)[nH]c2c1` [Example 184, [7-(4-Guanidino-butoxy)-2-oxo-1,2-dihydro-quinolin-3-yl]-acetic Acid Hydrochloride], the melting point is 216.5 to 219 °C. Moreover, in data set [2] (setting [6]), the remaining activity at 200 µM was 85.5%. Further, in data set [3] (Rattus norvegicus, Osteoclast, @ 271 μM), the inhibition at 271 µM was determined as 37%. Also, in data set [4], the remaining activity at 20 µM was found to be 108% and the remaining activity at 100 µM stood at 85%. The remaining activity at 30 µM in data set [5] amounted to 67.5%.

For `N=C(N)NCCCOc1ccc2c(c1)CC(CCC(=O)O)C(=O)N2` (centres unmarked) [Example 223, 3-[6-(3-Guanidino-propoxy)-2-oxo-1,2,3,4-tetrahydro-quinolin-3-yl]-propionic Acid], the melting point fell in the range of 168 to 172 °C. In data set [2], the IC50 came out at 54 µM. The inhibition at 226 µM in data set [3] (Rattus norvegicus, Osteoclast, @ 226 μM) was -72%. In addition, in data set [4], the remaining activity at 20 µM amounted to 104% and the remaining activity at 100 µM came to 108%. Besides, in data set [5], the remaining activity at 30 µM was found to be 100%.

Regarding `N=C(N)NCCCCOc1ccc2c(c1)CC(CCC(=O)O)C(=O)N2` (centres unmarked) [Example 224, 3-[6-(4-Guanidino-butoxy)-2-oxo-1,2,3,4-tetrahydro-quinolin-3-yl]-propionic Acid], the melting point lay in the range of 152 to 155 °C. In addition, the IC50 in data set [2] is 53 µM. Also, in data set [3] (Rattus norvegicus, Osteoclast), the inhibition at 216 µM was -62%. The remaining activity at 20 µM in data set [4] came out at 100%. Moreover, the remaining activity at 30 µM in data set [5] turned out to be 100%.

In turn, `N=C(N)NCCCCOc1ccc2c(c1)NC(=O)C(CCC(=O)O)C2` (centres unmarked) [Example 232, 3-[7-(4-Guanidino-butoxy)-2-oxo-1,2,3,4-tetrahydro-quinolin-3-yl]-propionic Acid] registered a melting point of 176 to 177 °C. For the same compound, the IC50 in data set [2] was found to be 155 µM. For the same compound, in data set [3] (Rattus norvegicus, Osteoclast), the inhibition at 216 µM is -70%. For the same compound, in data set [4], the remaining activity at 100 µM worked out at 97%. Besides, in data set [5], the remaining activity at 30 µM turned out to be 75.3%.

On to `N=C(N)NCCCOc1cccc2c1NC(=O)C(CC(=O)O)C2` (centres unmarked) [Example 234, [8-(3-Guanidino-propoxy)-2-oxo-1,2,3,4-tetrahydro-quinolin-3-yl]-acetic Acid], for which the melting point fell in the range of 151 to 155 °C. Further, in data set [2] (setting [6]), the remaining activity at 200 µM came out at 74.3%. The inhibition at 230 µM in data set [3] (Rattus norvegicus, Osteoclast, @ 230 μM) amounted to 8%. In data set [4], the remaining activity at 100 µM amounted to 85%. Further, the remaining activity at 30 µM in data set [5] came out at 100%.

In turn, `N=C(N)NCCCCOc1cccc2c1NC(=O)C(CC(=O)O)C2` (centres unmarked) [Example 235, [8-(4-Guanidino-butoxy)-2-oxo-1,2,3,4-tetrahydro-quinolin-3-yl]-acetic Acid] had a melting point of 207 to 210 °C. Moreover, in data set [2] (setting [6]), the remaining activity at 200 µM came to 81.1%. The inhibition at 221 µM in data set [3] (Rattus norvegicus, Osteoclast, @ 221 μM) is -50%. The remaining activity at 100 µM in data set [4] worked out at 91%. Also, the remaining activity at 30 µM in data set [5] came out at 100%.

For `N=C(N)NCCCOc1ccc2cc(CC(=O)O)c(=O)n(Cc3ccccc3)c2c1.O=C(O)C(F)(F)F` [Example 239, [1-Benzyl-7-(3-guanidino-propoxy)-2-oxo-1,2-dihydro-quinolin-3-yl]-acetic Acid Trifluoroacetic Acid Salt], the melting point fell in the range of 132 to 134 °C. The “Percent of Maximal” value in data set [2] (setting [6]) is recorded as 83.7@200%. For the same compound, in data set [3] (Rattus norvegicus, Osteoclast, @ 19.1 μM), the inhibition at 19.1 µM worked out at 33%. Moreover, in data set [4], the remaining activity at 20 µM was 99.7% and the remaining activity at 100 µM amounted to 67.5%. Besides, the remaining activity at 30 µM in data set [5] was determined as 70%.

For the compound Cyclo(-Arg-Gly-Asp-D-Phe-Val), the “Change in Serum Calcium (mg/dL)” value in data set [1] (Table III, TPTX rat, 100 mg/kg.sc) is reported as −0.90 + 0.28 mg/dL. The “Change in Serum Calcium after 3 hours” value in data set [1] (1st column pair) was 0.69 mg/dL; in data set [1] (2nd column pair), 0.58** mg/dl; in data set [1] (3rd column pair), 0.01** mg/dl; in data set [1] (4th column pair) it was 0.51** mg/dl. In addition, the “Change in Serum Calcium after 6 hours” value in data set [1] (1st column pair) was 1.20* mg/dl; in data set [1] (2nd column pair), 1.44* mg/dl; in data set [1] (3rd column pair), 0.63 mg/dL; in data set [1] (4th column pair) it was 1.07 mg/dL.

(Values after patent US20030109523A1, “Bicyclic antagonists selective for the alphavbeta3 integrin” (Wyeth, priority 1999, published 2003).)
